The target of one assay is CDK2/Cyclin A (Homo sapiens, UniProt P24941). Put plainly: Inhibition of CDK2/Cyclin A Retinoblastoma Kinase Activity. Format: biochemical. Particulars: for Ki: apparent Ki, CDK2/proteolyzed cyclin A, Rb fragment substrate, 25 μM ATP. The gist of the method:
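CDK2 (10 or 19 nM), insect-cell expressed, gel-filtration purified with truncated cyclin A; Rb fragment substrate; 25 μM ATP; 10 mM HEPES pH 7.4, 10 mM MgCl2; 30° C, 60 or 75 min; EDTA stop; phosphocellulose/nitrocellulose capture, phosphorimager. % inhibition vs DMSO control, no-enzyme background subtracted.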

In assay [1] the target is human CDK4 and genetically truncated (1-264) cyclin D3 (Homo sapiens, UniProt P11802). As to the kind of experiment: Inhibition of CDK4/Cyclin D Retinoblastoma Kinase Activity. Format: biochemical. Particulars: for Ki: apparent Ki, CDK4/truncated cyclin D3, Rb fragment substrate, 25 μM ATP. The method, boiled down:
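The enzyme complex (5 nM), expressed in co-infected insect cells, was incubated with recombinant Rb fragment, 25 μM radiolabelled ATP and 2% DMSO at 30 °C. Reactions were stopped with EDTA after 20 minutes, or 60 minutes for tight-binding inhibitors. Apparent Ki values came from competitive inhibition fits.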

A further assay has as its system HCT-116 cell line. As to the kind of experiment: Inhibition of cell growth, tetrazolium salt (MTT) assay. Format: cell-based. Particulars: for IC50: Homo sapiens, HCT-116, 120 h, MTT, three to five days, read-out: HCT-116 IC50; for HCT-116 % Inhibition at 0.25 μM: 0.25 μM compound. The method, boiled down:
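Growth inhibition is scored relative to cells receiving only 0.5% (v/v) DMSO. Plated cells rest 4 h, then take compound for three to five days at 37° C; MTT reduction to formazan is read at 540 nm.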

From patent US20050101595A1, “N-containing cycloalkyl-substituted amino-thiazole derivatives and pharmaceutical compositions for inhibiting cell proliferation and methods for their use” (PFIZER INC., priority 2003, published 2005) come the findings set out here.

Counter-ions that a name gives are not always drawn. Like-named read-outs stand apart in the source and are kept apart here.

human CDK4 and genetically truncated (1-264) cyclin D3, sequence (P11802 whole entry, the tested form may be a part): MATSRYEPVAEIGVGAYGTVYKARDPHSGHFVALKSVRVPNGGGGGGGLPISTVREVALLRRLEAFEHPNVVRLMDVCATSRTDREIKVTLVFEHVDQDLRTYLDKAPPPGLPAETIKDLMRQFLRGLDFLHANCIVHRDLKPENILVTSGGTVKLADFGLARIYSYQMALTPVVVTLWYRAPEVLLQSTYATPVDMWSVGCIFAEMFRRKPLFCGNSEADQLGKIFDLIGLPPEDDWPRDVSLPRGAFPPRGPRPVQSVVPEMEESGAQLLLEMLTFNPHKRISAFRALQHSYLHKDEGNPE
human CDK4 and genetically truncated (1-264) cyclin D3, sequence (P30281 1-264 partner): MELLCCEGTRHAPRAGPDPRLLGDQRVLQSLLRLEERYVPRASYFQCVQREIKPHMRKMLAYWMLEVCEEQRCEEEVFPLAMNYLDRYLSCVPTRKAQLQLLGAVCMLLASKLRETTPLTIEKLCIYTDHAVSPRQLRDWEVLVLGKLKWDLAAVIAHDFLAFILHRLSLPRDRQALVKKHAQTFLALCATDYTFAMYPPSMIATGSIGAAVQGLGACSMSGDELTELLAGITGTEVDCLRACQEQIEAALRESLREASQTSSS

Regarding `CNc1ccccc1C(=O)N1CCC(Nc2nc(N)c(C(=O)c3c(F)cccc3F)s2)CC1` [Example R112], at CDK2/Cyclin A (at 0.03 μM), the “CDK2 % Inhibition at 0.03 μM” value is 12%. In assay [1] (at 0.03 μM), the “CDK4 % Inhibition at 0.03 μM” value is 21%. The “HCT-116 % Inhibition at 0.1 μM” value with HCT-116 cell line (HCT-116 cells, at 0.1 μM) stood at 39%. For the same molecule, in the assay with HCT-116 cell line (HCT-116 cells), the “HCT-116 5 Inhibition at 0.25 μM” value came out at 93.
In general, IC50 refers to the concentration that inhibits the measured activity by half. Consider `Cc1cn(-c2ccc(S(=O)(=O)N3CCC(Nc4nc(N)c(C(=O)c5c(F)cccc5F)s4)CC3)cn2)cn1` [Example G27, 1-(4-Amino-2-{1-[6-(4-methyl-imidazol-1-yl)-pyridine-3-sulfonyl]-piperidin-4-ylamino}-thiazol-5-yl)-1-(2,6-difluoro-phenyl)-methanone Hydrochloride], for which the Ki on CDK2/Cyclin A is 0.00041 µM; in assay [1], under 0.001 µM. Further, the IC50 is 0.057 µM in the assay with HCT-116 cell line (first HCT-116 column (c4)) and 0.25 µM with HCT-116 cell line (second HCT-116 column (c5)).
In the case of `CCCCC(C)C(=O)N1CCC(Nc2nc(N)c(C(=O)c3c(F)cccc3F)s2)CC1` (centres unmarked) [Example R167], the “CDK2 % Inhibition at 0.03 μM” value at CDK2/Cyclin A (at 0.03 μM) is recorded as −2%. Besides, in assay [1] (at 0.03 μM), the “CDK4 % Inhibition at 0.03 μM” value turned out to be 11%. The “HCT-116 % Inhibition at 0.1 μM” value in the assay on HCT-116 cell line (HCT-116 cells, at 0.1 μM) is 0%. Also, the “HCT-116 5 Inhibition at 0.25 μM” value in the assay with HCT-116 cell line (HCT-116 cells) is reported as 42.
In the same order, the values of `Cn1nc(C(C)(C)C)cc1C(=O)N1CCC(Nc2nc(N)c(C(=O)c3c(F)cccc3F)s2)CC1` [Example R60] are 45%, 69%, 0% and 29.
For the molecule `Nc1nc(NC2CCN(C(=O)C3CCC3)CC2)sc1C(=O)c1c(F)cccc1F` [Example Q56], on CDK2/Cyclin A (0.03 μM compound, Table 4), the “CDK2 % Inhibition at 0.03 μM” value came to 12%. For the same molecule, the “CDK4 % Inhibition at 0.03 μM” value in assay [1] (0.03 μM compound, Table 4) is reported as 14%. In addition, in the assay with HCT-116 cell line (0.1 μM compound, HCT-116, Table 4), the “HCT-116 % Inhibition at 0.1 μM” value came out at 0%. Besides, in the assay on HCT-116 cell line (HCT-116, Table 4), the “HCT-116 % Inhibition at 0.25 μM” value stood at 35%.
On to `CN1C(=O)c2ccc(NC(=O)N3CCC(Nc4nc(N)c(C(=O)c5c(F)cccc5F)s4)CC3)cc2C1=O` [Example O88], for which the “CDK2 % Inhibition At 0.03 μM” value at CDK2/Cyclin A (0.03 μM compound, Table 2) turned out to be 31%. In addition, the “CDK4 % Inhibition at 0.03 μM” value in assay [1] (0.03 μM compound, Table 2) was 12%. Besides, the “HCT-116 % Inhibition at 0.25 μM” value with HCT-116 cell line (HCT-116, Table 2) was found to be 45%.
For `Nc1nc(NC2CCN(C(=O)c3ccno3)CC2)sc1C(=O)c1c(F)cccc1F` [Example R46], the “CDK2 % Inhibition at 0.03 μM” value on CDK2/Cyclin A (at 0.03 μM) was 71%. Further, in assay [1] (at 0.03 μM), the “CDK4 % Inhibition at 0.03 μM” value came out at 83%. Also, the “HCT-116 % Inhibition at 0.1 μM” value with HCT-116 cell line (HCT-116 cells, at 0.1 μM) is on record as 0.47%. Moreover, in the assay on HCT-116 cell line (HCT-116 cells), the “HCT-116 5 Inhibition at 0.25 μM” value was 37.
`Nc1nc(NC2CCN(S(=O)(=O)c3ccc(N4CCC(O)C4)nc3)CC2)sc1C(=O)c1c(F)cccc1F` (centres unmarked) [Example G11, 1-(4-Amino-2-{1-[6-(3-hydroxy-pyrrolidin-1-yl)-pyridin-3-sulfonyl]-piperidin-4-ylamino}-thiazol-5-yl)-1-(2,6-difluoro-phenyl)-methanone Trifluoroacetic Acid Salt]: the Ki at CDK2/Cyclin A was under 0.001 µM; in assay [1], 0.00086 µM. The IC50 was 0.42 µM in the assay with HCT-116 cell line (first HCT-116 column (c4)) and over 5 µM with HCT-116 cell line (second HCT-116 column (c5)).
Consider `Nc1nc(NC2CCN(S(=O)(=O)c3cnc(OCCN4CCOCC4)nc3)CC2)sc1C(=O)c1c(F)cccc1F` [Example H22, (4-Amino-2-{1-[2-(2-morpholin4-yl-ethoxy)-pyrimidine-5-sulfonyl]-piperidin-4-ylamino}-thiazol-5-yl)-(2,6-difluoro-phenyl)-methanone Trifluoroacetic Acid Salt], for which the Ki came to 0.0012 µM on CDK2/Cyclin A and 0.0011 µM in assay [1]. In addition, the IC50 is 0.12 µM with HCT-116 cell line (first HCT-116 column (c4)) and 0.3 µM with HCT-116 cell line (second HCT-116 column (c5)).
`Nc1nc(NC2CCN(S(=O)(=O)c3ccc(SCCc4ccccn4)nc3)CC2)sc1C(=O)c1c(F)cccc1F` [Example L3, 1-(4-Amino-2-{1-[6-(2-pyridin-2-yl-ethylsulfanyl)-pyridine-3-sulfonyl]-piperidin-4-ylamino}-thiazol-5-yl)-1-(2,6-difluoro-phenyl)-methanone Hydrochloride.]: the Ki turned out to be 0.00068 µM at CDK2/Cyclin A and 0.0012 µM in assay [1]. The 50% inhibitory concentration (IC50) is 0.35 µM in the assay on HCT-116 cell line (first HCT-116 column (c4)) and over 0.5 µM in the assay with HCT-116 cell line (second HCT-116 column (c5)).
For `Nc1nc(NC2CCN(C(=O)c3ccccc3OC(F)(F)F)CC2)sc1C(=O)c1c(F)cccc1F` [Example R23], the “CDK2 % Inhibition at 0.03 μM” value at CDK2/Cyclin A (at 0.03 μM) is reported as −6%. In addition, the “CDK4 % Inhibition at 0.03 μM” value in assay [1] (at 0.03 μM) was 34%. For the same molecule, in the assay with HCT-116 cell line (HCT-116 cells, at 0.1 μM), the “HCT-116 % Inhibition at 0.1 μM” value is 2%. Moreover, the “HCT-116 5 Inhibition at 0.25 μM” value with HCT-116 cell line (HCT-116 cells) was found to be 38.
Turning to `Nc1nc(NC2CCN(S(=O)(=O)c3c(F)cccc3F)CC2)sc1C(=O)c1c(F)cccc1F` [Example P67], the “CDK2 % Inhibition at 0.03 μM” value on CDK2/Cyclin A (0.03 μM compound, Table 3) is −8%. In assay [1] (0.03 μM compound, Table 3), the “CDK4 % Inhibition at 0.03 μM” value was determined as 22%. The “HCT-116 % Inhibition at 0.1 μM” value in the assay with HCT-116 cell line (0.1 μM compound, HCT-116, Table 3) was determined as 9%. In addition, the “HCT-116 % Inhibition at 0.25 μM” value in the assay with HCT-116 cell line (HCT-116, Table 3) came to 25%.
